Measurements taken from paper PMC10672039, “Novel Ca-Chelating Peptides from Protein Hydrolysate of Antarctic Krill (Euphausia superba): Preparation, Characterization, and Calcium Absorption Efficiency in Caco-2 Cell Monolayer Model” (Marine Drugs, 2023).
Peptide text beside a SMILES is read from it.

How the values were obtained:
Caco-2 cell monolayer = assay: Ca transport across the Caco-2 cell monolayer; type: in vitro ADME, Human; settings: Caco-2 monolayer, mean ± SD, n = 3
Description: (§1) Caco-2 cells were obtained from the Shanghai Institute of Cell Biology (Shanghai, China) and cultured in EMEM with 10% fetal bovine serum, 1% antibiotic, and 1% nonessential amino acids in a humidified incubator at 37 °C with 5% CO2. The cell culture medium was replaced every two days with a new medium of equal volume. The Caco-2 cells were dispersed using trypsin-EDTA when they covered approximately 90% of the flask and were seeded on 6-well transwell culture plates with polyester membranes. The medium was replaced every other day with a new medium of equal volume. After being cultured for 21 days, the transepithelial electrical resistance (TEER) was determined to confirm the integrity of the Caco-2 cell monolayers. The Caco-2 cell monolayers were used for Ca transport experiments when the TEER exceeded 300 Ω·cm^2 [60, 66].
The Ca transport in the Caco-2 cell monolayer model was analyzed using previous methods. After 21 days of incubation, the culture medium of Caco-2 cells was discarded from each well, and monolayers were immediately washed with HBSS buffer (without Ca and magnesium) two times. The Caco-2 cell monolayers were transferred to a new 6-well culture plate containing 2 mL of HBSS buffer, and 2 mL of HBSS buffer was also added to the apical side. After incubating for 30 min, the HBSS on the apical side was replaced with 2 mL of HBSS containing VERG-Ca chelate (200 μM) or Ca (150 μg/mL), and the HBSS on the basolateral side was replaced with an equal volume of fresh HBSS buffer. After incubation for 2 h, 1 mL of HBSS in the basolateral side was removed to determine Ca content at the designed time (30, 60,120, and 180 min). At the same time, fresh HBSS buffer (1 mL) was added to the basolateral side to maintain a constant volume. The content of Ca was determined by atomic absorption spectrometry using HNO3 and HClO4 as the oxidizers.
In the experiments on the effects of vitamin D3 and phytate on Ca absorption, dietary factors (vitamin D3 and phytate) were first premixed with VERG-Ca chelate or CaCl2, respectively, at a mass ratio of 1:1. […]

Caco-2 cells = assay: Cytotoxicity, MTT assay; type: cell-based, Human; settings: 24 h treatment
Description: as §1
Cell cytotoxicity was determined using the MTT assay. […] Then, MTT solution (100 μL) was added per well and incubated for an additional 4 h. The MTT solution per well was replaced by an equal volume of DMSO solution to solubilize. Finally, the absorbance of the sample solution at 570 nm was measured.

absorption amount of Ca with phytate (Caco-2 cell monolayer; 180 min (stated for CaCl2; not restated for the chelate), premixed with phytate at mass ratio 1:1) | quantity of Ca of transport / absorption amount of Ca (Caco-2 cell monolayer; 180 min, apical to basolateral, HBSS, VERG-Ca chelate 200 μM or Ca 150 μg/mL, atomic absorption spectrometry) | absorption amount of Ca with vitamin D3 (Caco-2 cell monolayer; 180 min, premixed with vitamin D3 at mass ratio 1:1) | SMILES | effect on viability of Caco-2 cells (Caco-2 cells; 250 μM, vs control group (p < 0.05)) | effect on viability of Caco-2 cells (Caco-2 cells; 50–200 μM, vs control group)
2.02 ± 0.24 μg/mg protein | 2.96 ± 0.28 μg/mg protein | 5.14 ± 0.23 μg/mg protein | [Ca+2].[Cl-].[Cl-] [CaCl2] | – | –
– | – | – | CC(C)[C@H](N)C(=O)N[C@@H](CCC(=O)O)C(=O)N[C@@H](CCCNC(=N)N)C(=O)NCC(=O)O [ACP4, Val-Glu-Arg-Gly] (H-VERG-OH) | significantly decrease the viability | no significant effect on cell viability
